Data set [1] has as its system fluconazole-susceptible C. albicans strain: CAAL93. Nature of the data set: Antifungal susceptibility, spectrofluorimetric microdilution, CAAL93. The data set is classed as cell-based. The settings on record: Candida albicans, read-out: MIC values CAAL93. The essentials:
(§1)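 Tested by spectrofluorimetric broth microdilution against a panel of Candida strains with differing azole susceptibility, including fluconazole-resistant C. krusei, C. parapsilosis s.l. and C. albicans isolates (CAAL117 carries erg11 mutations and is voriconazole-resistant).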

The test system of data set [2] is fluconazole-resistant C. albicans strain CAAL111 (efflux pump). Kind of data set: microbe, parasite or virus in culture. The settings on record: Candida albicans, read-out: MIC values CAAL111. The data set is classed as cell-based. The essentials:
as §1

In data set [3] the test system is fluconazole-resistant C. glabrata (CAGL2). Kind of data set: microbe, parasite or virus in culture. The data set is classed as cell-based. The settings on record: Nakaseomyces glabratus, read-out: MIC values CAGL2. The essentials: as §1
The subject of data set [4] is fluconazole-resistant C. krusei (CAKR8). Nature of the data set: microbe, parasite or virus in culture. The conditions noted are these: Pichia kudriavzevii, read-out: MIC values CAKR8. The data set is classed as cell-based. An outline of the steps:
as §1

Data set [5] concerns fluconazole-resistant C. parapsilosis s.l. (CAPA1). Nature of the data set: microbe, parasite or virus in culture. The data set is classed as cell-based. The settings on record: Lodderomyces parapsilosis, read-out: MIC values CAPA1. An outline of the steps: as §1
Data set [6] relates to fluconazole-resistant C. parapsilosis s.l. (CAPA2). Kind of data set: microbe, parasite or virus in culture. The data set is classed as cell-based. The conditions noted are these: Lodderomyces parapsilosis, read-out: MIC values CAPA2. An outline of the steps:
as §1

Data set [7] has as its system A. fumigatus susceptible strain ASFU76. Kind of data set: Antifungal susceptibility, spectrofluorimetric microdilution, ASFU76. The data set is classed as cell-based, Aspergillus fumigatus. The conditions noted are these: Aspergillus fumigatus, read-out: MIC values ASFU76. The essentials: (§2)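 Spectrofluorimetric microdilution; MIC = conc. giving 80% inhibition of fluorescence vs control wells. Strains drawn from a panel of eleven A. fumigatus isolates of differing itraconazole susceptibility.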
(In general: Dilution methods test growth across graded concentrations, often in twofold steps.)

In data set [8] the test system is A. fumigatus susceptible strain ASFU35A. Nature of the data set: Antifungal susceptibility, spectrofluorimetric microdilution, ASFU35A. The conditions noted are these: Aspergillus fumigatus, read-out: MIC values ASFU35A. The data set is classed as cell-based, Aspergillus fumigatus. The essentials:
as §2

For data set [9], the system named is A. fumigatus susceptible strain ASFU38A. Nature of the data set: Antifungal susceptibility, spectrofluorimetric microdilution, ASFU38A. The conditions noted are these: Aspergillus fumigatus, read-out: MIC values ASFU38A. The data set is classed as cell-based, Aspergillus fumigatus. An outline of the steps: as §2
In data set [10] the test system is A. fumigatus susceptible strain ASFU7. Kind of data set: Antifungal susceptibility, spectrofluorimetric microdilution, ASFU7. The settings on record: Aspergillus fumigatus, read-out: MIC values ASFU7. The data set is classed as cell-based, Aspergillus fumigatus. An outline of the steps: as §2
The test system of data set [11] is A. fumigatus susceptible strain ASFU78. Kind of data set: Antifungal susceptibility, spectrofluorimetric microdilution, ASFU78. The data set is classed as cell-based, Aspergillus fumigatus. The conditions noted are these: Aspergillus fumigatus, read-out: MIC values ASFU78. An outline of the steps: as §2
For data set [12], the system named is A. fumigatus itraconazole-resistant strain ASFU77 (erg11 mutation). Kind of data set: Antifungal susceptibility, spectrofluorimetric microdilution, ASFU77. The data set is classed as cell-based, Aspergillus fumigatus. The settings on record: Aspergillus fumigatus, read-out: MIC values ASFU77. An outline of the steps: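 Susceptibility of A. fumigatus strains was tested by spectrofluorimetric broth microdilution. MIC was the concentration inhibiting 80% of the fluorescence measured in control wells.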

For another data set, the system named is Hela Human cell line. Kind of data set: Cytotoxicity on HeLa cells. The data set is classed as cell-based. The conditions noted are these: 100 μM. The protocol:
Hela Human cell line was used in view to evaluate cytotoxicity. It was evaluated with a spectrofluorimetric microdilution method. IC50 was the concentration that was able to inhibit 50% of fluorescence measured in the control wells.

Data set [13] has as its system Candida albicans strain (CAAL93). Nature of the data set: Murine systemic candidiasis. The conditions noted are these: neutropenic Swiss mice, CAAL93 i.v., 10 mg/kg per os once a day for 5 days. The data set is classed as in vivo. The protocol: Transiently neutropenic female Swiss mice were used for experiments on systemic candidiasis and invasive aspergillosis.
Mice were inoculated intravenously with a Candida albicans strain (CAAL93). Treatment was administrated once a day (10 mg/kg per os) for 5 days. […] Fungal burden of the kidney was evaluated in dead animals during the experimentation or in animals sacrificed at the end of the experimentation.

The subject of data set [14] is promastigote stage of a Leishmania mexicana strain. Nature of the data set: Anti-Trypanosomatidae activity, promastigote stage, spectrofluorimetric microdilution. The data set is classed as cell-based. Here is the method:
Compounds were evaluated on the promastigote stage of a Leishmania mexicana strain using a spectrofluorimetric microdilution method. Inhibitory concentration 50 (IC50) was the concentration that inhibited 50% of the control growth.

≈ marks a conversion by molar mass, not a printed value. A value given as a limit tells only on which side of the number the result lay.

By IC50 is commonly meant the concentration at which inhibition is half-maximal. With `C[C@@H](n1ccc2nc(-c3ccc([N+](=O)[O-])cc3)cn2c1=O)[C@](O)(Cn1cncn1)c1ccc(F)cc1F` [Compound 35, 6-[(1R,2R)-2-(2,4-Difluorophenyl)-2-hydroxy-1-methyl-3-(1H-1,2,4-triazol-1-yl)propyl]-2-(4-nitrophenyl)imidazo[1,2-c]pyrimidin-5-one], the MIC is less than 0.001 µg/mL in [1]; 0.007 ± 0.003 µg/mL (≈ 0.0138 µM) in data set [2]; 0.2 ± 0.06 µg/mL (≈ 0.394 µM) in data set [3]; 0.07 ± 0.01 µg/mL (≈ 0.138 µM) in data set [4]; 0.011 ± 0.003 µg/mL (≈ 0.0217 µM) in [5]; 0.004 ± 0.003 µg/mL (≈ 0.00788 µM) in data set [6]. The MIC in [7] amounted to 7.45 ± 1 µg/mL (≈ 14.7 µM); in [8], 6.71 ± 0.06 µg/mL (≈ 13.2 µM); in data set [9], 25.6 ± 24.8 µg/mL (≈ 50.5 µM); in [10] it was 2.52 ± 0.05 µg/mL (≈ 4.97 µM); in [11], 6.19 ± 0.8 µg/mL (≈ 12.2 µM); in data set [12] it was 62.2 ± 2.92 µg/mL (≈ 123 µM). Besides, the “cytotoxic effect at the higher concentration used” value in the data set on Hela Human cell line is reported as “didn't show any cytotoxic effect”. The “survival efficiency compared with FLC” value in [13] is recorded as “significantly more efficient than FLC”. Also, the “survival compared with the non-treated group” value in data set [13] (28 days (compound 51, 14 days), p<0.05) is “significant longer survival”. In data set [13] (p<0.05), the “activity on fungal burden of the kidney compared to FLC” value is on record as “significantly higher when compared to FLC”. Also, the “fungal burden of the kidney” value in data set [13] (p<0.05 (compound 51 p<0.001)) was “significantly decreased”. Moreover, the “effectiveness against the promastigote stage of L. Mexicana, in words” value in data set [14] was “effective”. Further, in data set [14] (Leishmania mexicana, promastigote stage, 50% of control growth, read-out: L. mexicana (IC50 μM)), the IC50 was found to be 11.4 ± 1.5 µM.

The values are drawn from patent US10626115B2, “Fused pyrimidinone and triazinone derivatives containing bridged nitrogen, their process of preparation and their therapeutic uses as antifungal and/or antiparasitic agents” (UNIVERSITE DE NANTES, priority 2015, dated 2020).
